Data on three compounds can be found in ChEMBL document CHEMBL1124001, “Synthesis and antileukemic activity of bis[[(carbamoyl)oxy]methyl]- substituted pyrrolo[2,1-a]isoquinolines, pyrrolo[1,2-a]quinolines, pyrrolo[2,1-a]isobenzazepines, and pyrrolo[1,2-a]benzazepines” (J Med Chem, 1988).

For series [1], the system named is Mus musculus. Description: Net log cell kill was determined after injecting 15 mg/kg intraperitoneally in CD2F1 mice. It counts as functional. The note with it: route intraperitoneal.
Series [2] relates to Mus musculus. Description: Toxicity day survivors was determined by the ratio of animals survived to that of test animals at 3.75 mg/kg intraperitoneally in CD2F1 mice; 6/6. On the set-up: dose 3.75 mg/kg, route intraperitoneal. It counts as organism-based. The note with it: in vivo, ip.
Series [3] concerns Mus musculus. Kind of series: Ratio of treated to that of untreated tumor-bearing control animals at 1.87 mg/kg intraperitoneally in CD2F1 mice was determined. It counts as functional. The settings on record: route intraperitoneal.
Series [4] has as its system Mus musculus. Description: Toxicity day survivors was determined by the ratio of animals survived to that of test animals at 7.5 mg/kg intraperitoneally in CD2F1 mice; 6/6. The note with it: in vivo, ip. It counts as organism-based. The arrangement: dose 7.5 mg/kg, route intraperitoneal.
The subject of series [5] is Mus musculus. Description: Body weight change of test animals to that of control was determined after injection at 3.75 mg/kg intraperitoneally in CD2F1 mice. The settings on record: route intraperitoneal. It counts as functional.
The subject of series [6] is Mus musculus. Description: Toxicity day survivors was determined by the ratio of animals survived to that of test animals at 1.87 mg/kg intraperitoneally in CD2F1 mice; 6/6. It counts as organism-based. On the set-up: dose 1.87 mg/kg, route intraperitoneal. The settings on record: in vivo, ip.
Series [7] deals with Mus musculus. Kind of series: Body weight change of test animals to that of control was determined after injection at 60 mg/kg intraperitoneally in CD2F1 mice. It counts as functional. The settings on record: route intraperitoneal.
For series [8], the system named is Mus musculus. Description: Ratio of treated to that of untreated tumor-bearing control animals at 3.75 mg/kg intraperitoneally in CD2F1 mice was determined. It counts as functional. The note with it: route intraperitoneal.
For series [9], the system named is Mus musculus. Description: Toxicity day survivors was determined by the ratio of animals survived to that of test animals at 15 mg/kg intraperitoneally in CD2F1 mice; 6/6. The note with it: in vivo, ip. On the set-up: dose 15 mg/kg, route intraperitoneal. It counts as organism-based.
Series [10] relates to Mus musculus. Description: Body weight change of test animals to that of control was determined after injection at 7.5 mg/kg intraperitoneally in CD2F1 mice. It counts as functional. The note with it: route intraperitoneal.
For series [11], the system named is Mus musculus. Kind of series: Net log cell kill was determined after injecting 1.87 mg/kg intraperitoneally in CD2F1 mice. It counts as functional. The note with it: route intraperitoneal.
The test system of series [12] is Mus musculus. Description: Ratio of treated to that of untreated tumor-bearing control animals at 7.5 mg/kg intraperitoneally in CD2F1 mice was determined. It counts as functional. The settings on record: route intraperitoneal.
The test system of series [13] is Mus musculus. Description: Ratio of treated to that of untreated tumor-bearing control animals at 15 mg/kg intraperitoneally in CD2F1 mice was determined. It counts as functional. The note with it: route intraperitoneal.
Series [14] has as its system Mus musculus. Kind of series: Toxicity day survivors was determined by the ratio of animals survived to that of test animals at 60 mg/kg intraperitoneally in CD2F1 mice; 4/6. It counts as organism-based. On the set-up: dose 60 mg/kg, route intraperitoneal. The settings on record: in vivo, ip.
The subject of series [15] is Mus musculus. Kind of series: Net log cell kill was determined after injecting 7.5 mg/kg intraperitoneally in CD2F1 mice. The settings on record: route intraperitoneal. It counts as functional.
In series [16] the test system is Mus musculus. Description: Body weight change of test animals to that of control was determined after injection at 15 mg/kg intraperitoneally in CD2F1 mice. It counts as functional. The settings on record: route intraperitoneal.
Series [17] relates to Mus musculus. Description: Body weight change of test animals to that of control was determined after injection at 1.87 mg/kg intraperitoneally in CD2F1 mice. It counts as functional. The note with it: route intraperitoneal.
The test system of series [18] is Mus musculus. Kind of series: Net log cell kill was determined after injecting 3.75 mg/kg intraperitoneally in CD2F1 mice. It counts as functional. The settings on record: route intraperitoneal.
The test system of series [19] is Mus musculus. Description: Ratio of treated to that of untreated tumor-bearing control animals at 240 mg/kg intraperitoneally in CD2F1 mice was determined. It counts as functional. The note with it: route intraperitoneal.
The subject of series [20] is Mus musculus. Description: Toxicity day survivors was determined by the ratio of animals survived to that of test animals at 240 mg/kg intraperitoneally in CD2F1 mice; 6/6. It counts as organism-based. On the set-up: dose 240 mg/kg, route intraperitoneal. The note with it: in vivo, ip.
The test system of series [21] is Mus musculus. Kind of series: Ratio of treated to that of untreated tumor-bearing control animals 30 mg/kg intraperitoneally in CD2F1 mice was determined. It counts as functional. The settings on record: route intraperitoneal.
Series [22] concerns Mus musculus. Description: Net log cell kill was determined after injecting 240 mg/kg intraperitoneally in CD2F1 mice. It counts as functional. The note with it: route intraperitoneal.
For series [23], the species on record is Mus musculus. Description: Ratio of treated to that of untreated tumor-bearing control animals was determined. It counts as functional.
Series [24] deals with Mus musculus. Description: Ratio of treated to that of untreated tumor-bearing control animals at 120 mg/kg intraperitoneally in CD2F1 mice was determined. It counts as functional. The note with it: route intraperitoneal.
Series [25] deals with Mus musculus. Kind of series: Net log cell kill was determined after injecting 120 mg/kg intraperitoneally in CD2F1 mice. It counts as functional. The settings on record: route intraperitoneal.
For series [26], the system named is Mus musculus. Kind of series: Body weight change of test animals to that of control was determined after injection at 240 mg/kg intraperitoneally in CD2F1 mice. It counts as functional. The settings on record: route intraperitoneal.
Series [27] relates to Mus musculus. Kind of series: Body weight change of test animals to that of control was determined after injection at 120 mg/kg intraperitoneally in CD2F1 mice. It counts as functional. The settings on record: route intraperitoneal.
For series [28], the system named is Mus musculus. Kind of series: Toxicity day survivors was determined by the ratio of animals survived to that of test animals at 60 mg/kg intraperitoneally in CD2F1 mice; 6/6. The note with it: in vivo, ip. On the set-up: dose 60 mg/kg, route intraperitoneal. It counts as organism-based.
Series [29] concerns Mus musculus. Kind of series: Net log cell kill was determined after injecting 30 mg/kg intraperitoneally in CD2F1 mice. The note with it: route intraperitoneal. It counts as functional.
The test system of series [30] is Mus musculus. Kind of series: Net log cell kill was determined after injecting 60 mg/kg intraperitoneally in CD2F1 mice. The settings on record: route intraperitoneal. It counts as functional.
In series [31] the test system is Mus musculus. Kind of series: Body weight change of test animals to that of control was determined after injection at 30 mg/kg intraperitoneally in CD2F1 mice. It counts as functional. The settings on record: route intraperitoneal.
Series [32] has as its system Mus musculus. Description: Toxicity day survivors was determined by the ratio of animals survived to that of test animals at 30 mg/kg intraperitoneally in CD2F1 mice; 6/6. It counts as organism-based. On the set-up: dose 30 mg/kg, route intraperitoneal. The note with it: in vivo, ip.
In series [33] the test system is Mus musculus. Description: Toxicity day survivors was determined by the ratio of animals survived to that of test animals at 120 mg/kg intraperitoneally in CD2F1 mice; 6/6. It counts as organism-based. The arrangement: dose 120 mg/kg, route intraperitoneal. The note with it: in vivo, ip.
The test system of series [34] is Mus musculus. Description: Ratio of treated to that of untreated tumor-bearing control animals at 30 mg/kg intraperitoneally in CD2F1 mice was determined. It counts as functional. The settings on record: route intraperitoneal.
The test system of series [35] is Mus musculus. Kind of series: Ratio of treated to that of untreated tumor-bearing control animals at 60 mg/kg intraperitoneally in CD2F1 mice was determined. The note with it: route intraperitoneal. It counts as functional.

For the compound `CNC(=O)OCc1c(COC(=O)NC)c2n(c1C)-c1ccc(OC)cc1CCC2`, the KE in the series on Mus musculus [1] is listed as 0.27; with Mus musculus [11] it was -0.74; in the series with Mus musculus [15], 0.55; in the series with Mus musculus [18] it was -0.06. Also, the TDS in the series with Mus musculus [2] came to 6; with Mus musculus [4], 6; in the series with Mus musculus [6] it was 6; with Mus musculus [9], 6; in the series on Mus musculus [14] it was 4. Moreover, the T/C (usually the result in the treated group divided by that in the control group, in per cent) is given as 125% in the series with Mus musculus [3], 135% in the series with Mus musculus [8], 147% in the series on Mus musculus [12] and 144% with Mus musculus [13]. The T-C was -1.6 g in the series with Mus musculus [5]; -2.8 g with Mus musculus [7]; -1.3 g in the series with Mus musculus [10]; -1.2 g in the series with Mus musculus [16]; -1 g in the series on Mus musculus [17].
With `COc1ccc2c(ccc3c(COC(=O)NC(C)C)c(COC(=O)NC(C)C)c(C)n32)c1`, the KE with Mus musculus [1] is on record as -1.47; with Mus musculus [22], 1.19; in the series with Mus musculus [25], -0.12; in the series on Mus musculus [29], -0.42; with Mus musculus [30], -0.3. Besides, the T/C with Mus musculus [19] came to 154%; in the series on Mus musculus [21], 112%; in the series filed under Mus musculus [23], 128%; with Mus musculus [24] it was 131%; in the series with Mus musculus [13], 109%. Besides, the TDS with Mus musculus [20], in the series with Mus musculus [9], in the series with Mus musculus [28], in the series on Mus musculus [32] and with Mus musculus [33] was 6 each time. Further, the T-C with Mus musculus [7] is 0.1 g; in the series on Mus musculus [26], -3.5 g; in the series on Mus musculus [27], -0.6 g; with Mus musculus [31] it was 0 g; with Mus musculus [16], -0.1 g.
As for `Cc1c(COC(=O)NC(C)C)c(COC(=O)NC(C)C)c2ccc3ccccc3n12`, the T/C in the series on Mus musculus [19] worked out at 129%; in the series with Mus musculus [34], 135%; in the series with Mus musculus [35], 139%; in the series on Mus musculus [24] it was 106%. Besides, the TDS with Mus musculus [20], in the series on Mus musculus [28], with Mus musculus [32] and with Mus musculus [33] was 6 in each case. Besides, the T-C in the series with Mus musculus [7] was -1.1 g; with Mus musculus [26], -3.5 g; in the series on Mus musculus [27] it was -1.8 g; with Mus musculus [31], -0.5 g. The KE with Mus musculus [22] is on record as -0.5; in the series on Mus musculus [25], -1.5; in the series on Mus musculus [29], -0.53; in the series on Mus musculus [30], 0.47.
